In publication PMC9598531 (Biology, 2022):
Read-outs that look alike come from different tables or passages of the source.

Tests used:
[1] = biological target: T1, human KMO (Homo sapiens, UniProt O15229); assay: KMO enzyme activity (inhibitor screening kit) assay; format: biochemical; design: purchased BPS Bioscience; details: for inhibition at 100 µM: read-out: % inhibition of KMO enzyme activity; for IC50: human KMO enzyme
Procedure: The enzymatic assay was performed in duplicate. Ro 61-8048 was used as the positive control. The test compounds were dissolved in DMSO at 100 mM and diluted to 1 mM in assay buffer. A reaction mixture of assay buffer (50 μL), human KMO (20 μg/mL; 50 μL), test compounds (1 mM; 10 μL), and substrate (40 μL NADPH (10 mM) plus L-Kyn (20 mM)) were incubated in a 96-well plate at room temperature for 1.5 h. The absorbance was recorded at 340 nm. The enzyme activity was expressed as % activity as follows: % Activity=[(Abssample−Absblank)/(Abscontrol−Absblank)]×100
% Inhibition was calculated by subtracting the % activity from 100%.

[2] = tested on: KMO; details: KMO inhibitor; cited from earlier work
[3] = biological target: T1, human KMO; assay: KMO enzyme activity (inhibitor screening kit) assay; format: biochemical; design: purchased BPS Bioscience; details: read-out: % inhibition of KMO
[4] = biological target: T1, human KMO; assay: SPR binding assay (Biacore T200); design: purchased Cosmo Bio USA; details: for Kon: association rate; for Kd: dissociation constant
Procedure: The protein was manually immobilized on a Series S Sensor Chip CM5 based on an amine coupling method with minor modification. An SPR assay was conducted on the Biacore T200 SPR instrument (Cytiva; Marlborough, MA, USA). […] Ro 61-8048 stock solution (6 mM; dissolved in DMSO) was diluted into a series of concentrations ranging from 1.25 to 20 μM in the running buffer.

[5] = biological target: T1, human KMO; assay: Competitive SPR binding assay; details: for Experimental RU: CFA 75 μM, Ro 61-8048 5 μM, alone or combined
Procedure: HBS-P+ (20 mM; 0.02 M HEPES, 0.3 M NaCl, 0.1% v/v surfactant P20; pH 7.4) containing 3% DMSO was used as the running buffer. […] Ro 61-8048 was prepared as a final concentration of 5 μM in running buffer. […] FO(A)=1/1+KDA/CA(1+CB/KDB);FO(B)=1/1+KDB/CB(1+CA/KDA) where CA and CB are the respective concentrations of both binders, and KDA and KDB represent the equilibrium dissociation constants of the binders. The FO values were used to calculate the theoretical RU representative of competing compounds using the following equation [23]: Robserved=FO(A)·Rmax(A)+FO(B)·Rmax(B)

[6] = tested on: KMO; design: method as in PMID 28464785; details: rat liver and kidney homogenates in vitro; cited from earlier work
[7] = design: method as in PMID 21640374; details: cited from earlier work

T1 sequence (O15229 whole entry): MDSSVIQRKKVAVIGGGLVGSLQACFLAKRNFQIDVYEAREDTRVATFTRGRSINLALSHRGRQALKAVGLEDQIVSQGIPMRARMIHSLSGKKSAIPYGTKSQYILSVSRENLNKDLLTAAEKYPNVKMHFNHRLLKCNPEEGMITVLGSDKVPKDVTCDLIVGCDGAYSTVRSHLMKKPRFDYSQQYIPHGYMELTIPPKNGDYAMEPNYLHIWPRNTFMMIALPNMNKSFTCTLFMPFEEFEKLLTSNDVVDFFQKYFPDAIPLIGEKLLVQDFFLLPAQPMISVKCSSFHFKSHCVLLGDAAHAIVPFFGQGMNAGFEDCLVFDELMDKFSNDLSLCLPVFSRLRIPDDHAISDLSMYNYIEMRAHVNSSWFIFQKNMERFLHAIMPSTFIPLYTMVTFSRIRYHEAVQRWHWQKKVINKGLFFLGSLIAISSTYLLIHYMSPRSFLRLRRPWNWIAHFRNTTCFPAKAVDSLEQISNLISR

CCCCCc1cc(O)c(C/C=C(\C)CCC=C(C)C)c(O)c1C(=O)O [CBGA, cannabigerolic acid]
inhibition at 100 µM [1]: 1%

O=C(O)[C@H]1C[C@@H]1C(=O)c1ccc(Cl)c(Cl)c1 [UPF-648]
IC50 [2]: 0.04 µM

NC(CC(=O)c1cccc([N+](=O)[O-])c1)C(=O)O (stereo not drawn)
IC50 [2]: 0.9 µM

C=C(C)[C@@H]1CCC(C)=C[C@H]1c1c(O)cc(CCCCC)cc1O [CBD, cannabidiol, reference compound]
inhibition at 100 µM [1]: 6%

COc1cc(-c2cc(=O)c3c(O)c(C/C=C(\C)CCC=C(C)C)c(O)cc3o2)ccc1O [CFA, cannflavin A]
inhibition at 2.5 µM [3]: 8.5% | inhibition at 5 µM [3]: 15% | inhibition at 20 µM [3]: 38% | inhibition at 40 µM [3]: 59% | IC50 [1]: 29.4 µM | inhibition at 100 µM [1]: 99% | Kon ([4]; SPR): 0.3 ×10^3, 1/Ms | Kd ([4]; SPR): 41 µM | Koff ([4]; SPR, dissociation rate): 14.2 ×10^−3, 1/s | kon ([4]; SPR, read-out: association rate): 300 M⁻¹ s⁻¹ | Koff ([4]; SPR, read-out: dissociation rate): 0.0142 s⁻¹ | binding response unit (RU) ([4]; at 10 μM): 5.6 RU | binding response unit (RU) ([4]; at 19 μM): 10.4 RU | binding response unit (RU) ([4]; at 38 μM): 17.9 RU | binding response unit (RU) ([4]; at 150 μM): 35.7 RU | binding response unit (RU) ([4]; at 300 μM): 40.7 RU | Experimental RU [5]: 27 RU | binding mode of CFA and Ro 61-8048 to the KMO protein ([5]; competitive SPR analysis): competitive, rather than non-competitive binding

CCCCCc1cc(O)c(C/C=C(\C)CCC=C(C)C)c(O)c1 [CBG, cannabigerol]
inhibition at 100 µM [1]: 1%

CCCCCc1cc(O)c2c(c1)OC(C)(CCC=C(C)C)C=C2 (stereo not drawn) [CBC, cannabichromene]
inhibition at 100 µM [1]: 0%

CCCCCc1cc(O)c2c(c1)OC(C)(C)C1=C2C(O)C(C)(O)CC1 (stereo not drawn) [CBT, cannabitriol]
% inhibition of KMO enzyme activity ([1]; at 100 μM): 11%

CCCCCc1cc(O)c2c(c1)OC(C)(C)c1ccc(C)cc1-2 [CBN, cannabinol]
inhibition at 100 µM [1]: 0%

CCCCCc1cc(O)c2c(c1)OC(C)(C)[C@@H]1CC=C(C)C[C@@H]21 [Δ^8 THC, delta-8-Tetrahydrocannabinol]
inhibition at 100 µM [1]: 1%

C=C(C)[C@@H]1CCC(C)=C[C@H]1c1c(O)cc(CCC)cc1O [CBDV, cannabidivarin]
inhibition at 100 µM [1]: 0%

COc1ccc(S(=O)(=O)Nc2nc(-c3cccc([N+](=O)[O-])c3)cs2)cc1OC [Ro 61-8048, 3,4-Dimethoxy-[-N-4-(Nitrophenyl)Thiazol-2YL]-Benzenesulfonamide, reference compound]
IC50 [6]: 0.037 µM | IC50 [1]: 5.1 µM | crossing of the blood brain barrier [7]: cannot cross the blood brain barrier | Kon ([4]; SPR): 3.7 ×10^3, 1/Ms | Kd ([4]; SPR): 11 µM | Koff ([4]; SPR, dissociation rate): 38.5 ×10^−3, 1/s | binding response unit (RU) ([4]; at 1 μM): 1.48 RU | binding response unit (RU) ([4]; at 3 μM): 2.99 RU | binding response unit (RU) ([4]; at 10 μM): 13.4 RU | binding response unit (RU) ([4]; at 20 μM): 27.0 RU | Experimental RU [5]: 19 RU
